# Test results published in patent publication US20070189984A1, “Agents for use on skin and/or hair containing quadruply substituted cyclohexene compounds” (BEIERSDORF AF,, priority 2003, published 2007).
# Tested on: primary normal human melanocytes
# Test: melanogenesis assay (C14-tyrosine incorporation)
# Type: cell-based
# Settings: incubation for 3 days, average, n=3
# Experimental: By way of example, the test for the compound 6-methyl-8-(2,6,6-trimethylcyclohex-1-en-1-yl)octa-3,5-dien-2-one is given.
# A melanogenesis assay was carried out after incubation for 3 days of primary normal human melanocytes with test substance compared to control. The numbers given in the table indicate the melanogenesis rates based on the untreated control (=100%) (measured as C14-tyrosine incorporation).
structure (smiles),measurement,setting,value
"CC(=O)/C=C/C=C(\C)CCC1=C(C)CCCC1(C)C [(3E,5E)-6-methyl-8-(2,6,6-trimethylcyclohex-1-en-1-yl)octa-3,5-dien-2-one]","melanogenesis rate based on the untreated control (=100%), measured as C14-tyrosine incorporation",0.1 μg/ml test substance,127%
same,"melanogenesis rate based on the untreated control (=100%), measured as C14-tyrosine incorporation",1 μg/ml test substance,157%
